The conditions of data set [1]: human gut metagenome, 24 h, 2 µM.
For data set [2] the following is noted: human gut metagenome, 24 h, 2 µM. The source holds these as a separate data set.
The conditions of data set [3]: human gut metagenome, 24 h, 2 µM. The source holds these as a separate data set.
Data set [4] in a line: The drug is tested on WLS-240 corresponding to human gut metagenome with ENA study accession number: PRJEB37062 and ENA sample accession number: ERS12561773 for biotransformation under anaerobic condition. The drug concentrations were measured over 9 timepoints collected between 0 and 24 hours of incubation by liquid-chromatography-coupled mass spectrometry (LC–MS). The following applies: 2 µM.

For data set [5] the following is noted: human gut metagenome, 24 h, 2 µM. This is another data set of the same source.
Data set [6] is described as follows: The drug is tested on WLS-052 corresponding to human gut metagenome with ENA study accession number: PRJEB37062 and ENA sample accession number: ERS12561747 for biotransformation under anaerobic condition. The drug concentrations were measured over 9 timepoints collected between 0 and 24 hours of incubation by liquid-chromatography-coupled mass spectrometry (LC–MS). Particulars: 2 µM.

Data set [7] is described as follows: The drug is tested on WLS-370 corresponding to human gut metagenome with ENA study accession number: PRJEB37062 and ENA sample accession number: ERS12561793 for biotransformation under anaerobic condition. The drug concentrations were measured over 9 timepoints collected between 0 and 24 hours of incubation by liquid-chromatography-coupled mass spectrometry (LC–MS). Particulars: 2 µM.

The conditions of data set [8]: human gut metagenome, 24 h, 2 µM. This is another data set of the same source.
Data set [9] is described as follows: The drug is tested on WLS-220 corresponding to human gut metagenome with ENA study accession number: PRJEB37062 and ENA sample accession number: ERS12561769 for biotransformation under anaerobic condition. The drug concentrations were measured over 9 timepoints collected between 0 and 24 hours of incubation by liquid-chromatography-coupled mass spectrometry (LC–MS). The following applies: 2 µM.

The conditions of data set [10]: human gut metagenome, 24 h, 2 µM. The source holds these as a separate data set.
The nature of data set [11]: The drug is tested on Z-001 corresponding to mouse gut metagenome with ENA study accession number: PRJEB37062 and ENA sample accession number: ERS12561801 for biotransformation under anaerobic condition. The drug concentrations were measured over 9 timepoints collected between 0 and 24 hours of incubation by liquid-chromatography-coupled mass spectrometry (LC–MS). The following applies: 2 µM.

For data set [12] the following is noted: human gut metagenome, 24 h, 2 µM. This is another data set of the same source.
The conditions of data set [13]: human gut metagenome, 24 h, 2 µM. This is another data set of the same source.
The conditions of data set [14]: human gut metagenome, 24 h, 2 µM. This is another data set of the same source.
The nature of data set [15]: The drug is tested on WLS-082 corresponding to human gut metagenome with ENA study accession number: PRJEB37062 and ENA sample accession number: ERS12561751 for biotransformation under anaerobic condition. The drug concentrations were measured over 9 timepoints collected between 0 and 24 hours of incubation by liquid-chromatography-coupled mass spectrometry (LC–MS). The following applies: 2 µM.

For data set [16] the following is noted: human gut metagenome, 24 h, 2 µM. This is another data set of the same source.
Data set [17] can be described thus: The drug is tested on Z-022 corresponding to mouse gut metagenome with ENA study accession number: PRJEB37062 and ENA sample accession number: ERS12561821 for biotransformation under anaerobic condition. The drug concentrations were measured over 9 timepoints collected between 0 and 24 hours of incubation by liquid-chromatography-coupled mass spectrometry (LC–MS). The following applies: 2 µM.

The nature of data set [18]: The drug is tested on Z-004 corresponding to metagenome with ENA study accession number: PRJEB37062 and ENA sample accession number: ERS12561804 for biotransformation under anaerobic condition. The drug concentrations were measured over 9 timepoints collected between 0 and 24 hours of incubation by liquid-chromatography-coupled mass spectrometry (LC–MS). The following applies: 2 µM.

Data set [19] can be described thus: The drug is tested on Z-002 corresponding to rabbit gut metagenome with ENA study accession number: PRJEB37062 and ENA sample accession number: ERS12561802 for biotransformation under anaerobic condition. The drug concentrations were measured over 9 timepoints collected between 0 and 24 hours of incubation by liquid-chromatography-coupled mass spectrometry (LC–MS). Particulars: 2 µM.

Data set [20] in a line: The drug is tested on Z-018 corresponding to pig gut metagenome with ENA study accession number: PRJEB37062 and ENA sample accession number: ERS12561817 for biotransformation under anaerobic condition. The drug concentrations were measured over 9 timepoints collected between 0 and 24 hours of incubation by liquid-chromatography-coupled mass spectrometry (LC–MS). Particulars: 2 µM.
Further: call rule not given here.

As to `COCCCC/C(=N\OCCN)c1ccc(C(F)(F)F)cc1.O=C(O)/C=C\C(=O)O` [FLUVOXAMINE MALEATE], the “Bacterial Biotransformation” value in data set [1], in [2], in data set [3], in data set [4], in data set [5] and in data set [6] was “Compound NOT metabolized” in each case. Further, the “Bacterial Biotransformation” value was “Compound metabolized” in data set [7]; “Compound NOT metabolized” in data set [8]; “Compound metabolized” in [9]; “Compound NOT metabolized” in data set [10]; “Compound metabolized” in [11]; “Compound metabolized” in [12]. Besides, the “Bacterial Biotransformation” value was “Compound metabolized” in data set [13], “Compound NOT metabolized” in data set [14], “Compound NOT metabolized” in data set [15] and “Compound NOT metabolized” in data set [16].

`N=C(N)NC(=O)Cc1c(Cl)cccc1Cl` [GUANFACINE]: the “Bacterial Biotransformation” value in data set [1], in data set [2], in data set [3], in [4], in data set [5] and in data set [6] was “Compound NOT metabolized” in each case. The “Bacterial Biotransformation” value in data set [7], in data set [17], in [8], in data set [18], in [9] and in data set [19] was “Compound NOT metabolized” each time. For the same compound, the “Bacterial Biotransformation” value in data set [10], in data set [11], in data set [12], in data set [13], in [14] and in data set [15] was “Compound NOT metabolized” in each case. In addition, in [16], the “Bacterial Biotransformation” value was “Compound NOT metabolized”.

For the compound `CC(=O)Oc1ccc(C(c2ccc(OC(C)=O)cc2)c2ccccn2)cc1` [BISACODYL], the “Bacterial Biotransformation” value in [1], in [2], in [3], in data set [4], in data set [5] and in [6] was “Compound metabolized” each time. Moreover, the “Bacterial Biotransformation” value in data set [7], in [8], in [18], in [9], in data set [10] and in [12] was “Compound metabolized” throughout. Also, the “Bacterial Biotransformation” value in data set [13], in [14], in [15] and in [16] was “Compound metabolized” each time.

Take `CNCC[C@H](Oc1cccc2ccccc12)c1cccs1` [DULOXETINE]: the “Bacterial Biotransformation” value in [1] is reported as “Compound metabolized”; in data set [2] it was “Compound metabolized”; in data set [3], “Compound metabolized”; in data set [4] it was “Compound NOT metabolized”; in [5], “Compound NOT metabolized”; in data set [6], “Compound NOT metabolized”. The “Bacterial Biotransformation” value in data set [7] was “Compound NOT metabolized”; in data set [8] it was “Compound NOT metabolized”; in [9] it was “Compound NOT metabolized”; in data set [10] it was “Compound NOT metabolized”; in data set [12], “Compound metabolized”; in data set [13], “Compound NOT metabolized”. For the same compound, the “Bacterial Biotransformation” value in data set [14], in [15] and in data set [16] was “Compound NOT metabolized” throughout.

For `CCCCC(=O)O[C@]1(C(=O)CO)[C@@H](C)C[C@H]2[C@@H]3CCC4=CC(=O)C=C[C@]4(C)[C@@]3(F)[C@@H](O)C[C@@]21C` [BETAMETHASONE VALERATE], the “Bacterial Biotransformation” value in data set [1] is “Compound metabolized”; in data set [2], “Compound metabolized”; in [3] it was “Compound metabolized”; in data set [4], “Compound metabolized”; in data set [5], “Compound NOT metabolized”; in data set [6] it was “Compound metabolized”. For the same compound, the “Bacterial Biotransformation” value in [7] is given as “Compound NOT metabolized”; in data set [8], “Compound NOT metabolized”; in data set [9], “Compound metabolized”; in data set [10] it was “Compound metabolized”; in data set [12] it was “Compound metabolized”; in [13], “Compound metabolized”. The “Bacterial Biotransformation” value in data set [14] was “Compound NOT metabolized”; in data set [15], “Compound metabolized”; in data set [16] it was “Compound metabolized”.

Consider `CN(C/C=C/C#CC(C)(C)C)Cc1cccc2ccccc12` [TERBINAFINE], for which the “Bacterial Biotransformation” value was “Compound NOT metabolized” in data set [1]; “Compound metabolized” in [2]; “Compound NOT metabolized” in data set [3]; “Compound NOT metabolized” in [4]; “Compound NOT metabolized” in data set [5]; “Compound NOT metabolized” in data set [7]. In addition, the “Bacterial Biotransformation” value in data set [8], in data set [18], in [9], in data set [20], in data set [19] and in data set [10] was “Compound NOT metabolized” throughout. The “Bacterial Biotransformation” value in data set [11] is recorded as “Compound NOT metabolized”; in [12] it was “Compound metabolized”; in data set [14], “Compound NOT metabolized”; in [15] it was “Compound NOT metabolized”; in data set [16] it was “Compound metabolized”.

With `CNNCc1ccc(C(=O)NC(C)C)cc1` [PROCARBAZINE], the “Bacterial Biotransformation” value in data set [1] was “Compound metabolized”; in data set [2], “Compound NOT metabolized”; in data set [3], “Compound NOT metabolized”; in [4], “Compound metabolized”; in data set [5], “Compound metabolized”; in data set [7], “Compound metabolized”. Moreover, the “Bacterial Biotransformation” value is on record as “Compound metabolized” in data set [17]; “Compound metabolized” in data set [8]; “Compound NOT metabolized” in data set [18]; “Compound metabolized” in data set [10]; “Compound NOT metabolized” in data set [11]; “Compound NOT metabolized” in data set [12]. Also, the “Bacterial Biotransformation” value in data set [13] was “Compound metabolized”; in [16] it was “Compound NOT metabolized”.
